# Measurements taken from US6274715A, “Tricyclic erythromycin derivatives” (priority 1997, dated 2001).
# Assays:
# Format in all cases: cell-based
# [1] = system: STAPHYLOCOCCUS AUREUS CMX 642A; experiment: In vitro antibacterial activity, MIC, BHI agar dilution; conditions: S. aureus CMX 642A, unit assumed
# [2] = system: PSEUDOMONAS AERUGINOSA K799/WT; experiment: as above; conditions: P. aeruginosa K799/WT, unit assumed
# [3] = system: STAPHYLOCOCCUS AUREUS 1775; experiment: as above; conditions: S. aureus 1775, unit assumed
# [4] = system: STREPTOCOCCUS BOVIS A-5169; experiment: as above; conditions: S. bovis A-5169, unit assumed
# M[…] ATCC 4698 = experiment: as above; conditions: M. luteus ATCC 4698, unit assumed
# Outline: (§1)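 MIC was read visually as the lowest drug concentration showing no growth, a slight haze or sparsely isolated colonies relative to a compound-free BHI plate. Plates held serial aqueous dilutions in BHI agar, were spot-inoculated with 1:100 (or 1:10) culture dilutions and incubated 20 to 24 hours at 35-37° C.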
# M[…] ATCC 9341 = experiment: as above; conditions: M. luteus ATCC 9341, unit assumed
# Outline: as §1
# STR[…] 508 = experiment: as above; conditions: S. agalactiae CMX 508, unit assumed
# Outline: as §1
# EN[…] ATCC 8043 = experiment: as above; conditions: E. faecium ATCC 8043, unit assumed
# Outline: as §1
# [5] = system: STAPHYLOCOCCUS AUREUS A5177; experiment: as above; conditions: S. aureus A5177, unit assumed
# [6] = system: STREPTOCOCCUS PYOGENES EES61; experiment: as above; conditions: S. pyogenes EES61, unit assumed
# [7] = system: PROVIDENCIA STUARTII CMX 640; conditions: P. stuartii CMX 640; BHI agar; unit assumed
# ESCHERICHIA COLI DC-2 = experiment: In vitro antibacterial activity, MIC, BHI agar dilution; conditions: E. coli DC-2, unit assumed
# [8] = system: KLEBSIELLA PNEUMONIAE ATCC 8045; experiment: as above; conditions: K. pneumoniae ATCC 8045, unit assumed
# [9] = system: PSEUDOMONAS AERUGINOSA DPHD-2862; experiment: as above; conditions: P. aeruginosa DPHD-2862, unit assumed
# ESCHERICHIA COLI H560 = experiment: as above; conditions: E. coli H560, unit assumed
# ESCHERICHIA COLI KNK 437 = conditions: E. coli KNK 437; BHI agar; unit assumed
# ESCHERICHIA COLI JUHL = conditions: E. coli JUHL; BHI agar; unit assumed
# [10] = system: STAPHYLOCOCCUS AUREUS ATCC 6538P; experiment: In vitro antibacterial activity, MIC, BHI agar dilution; conditions: S. aureus ATCC 6538P, 35-37° C., 20 to 24 hours, unit assumed
# [11] = system: STAPHYLOCOCCUS AUREUS A-5278; experiment: as above; conditions: S. aureus A-5278, unit assumed
# [12] = system: STREPTOCOCCUS PYOGENES 930; experiment: as above; conditions: S. pyogenes 930, unit assumed
# [13] = system: PSEUDOMONAS AERUGINOSA BMH10; experiment: as above; conditions: P. aeruginosa BMH10, unit assumed
# [14] = system: STREPTOCOCCUS PYOGENES PIU 2548; experiment: as above; conditions: S. pyogenes PIU 2548, unit assumed
# CANDIDA ALBICANS CCH 442 = experiment: as above; conditions: C. albicans CCH 442, unit assumed
# [15] = system: MYCOBACTERIUM SMEGMATIS ATCC 114; experiment: as above; conditions: M. smegmatis ATCC 114, unit assumed
# [16] = system: STAPHYLOCOCCUS AUREUS NCTC10649M; experiment: as above; conditions: S. aureus NCTC10649M, unit assumed
# ESCHERICHIA COLI SS = experiment: as above; conditions: E. coli SS, unit assumed
# [17] = system: ENTEROBACTER AEROGENES ATCC 13048; experiment: as above; conditions: E. aerogenes ATCC 13048, unit assumed
# PSEUDOMONAS CEPACIA 296I = experiment: as above; conditions: P. cepacia 296I, unit assumed
# [18] = system: PSEUDOMONAS AERUGINOSA DPHD-5263; experiment: as above; conditions: P. aeruginosa DPHD-5263, unit assumed
# [19] = system: PSEUDOMONAS AERUGINOSA 5007; experiment: as above; conditions: P. aeruginosa 5007, unit assumed
# [20] = system: STAPHYLOCOCCUS EPIDERMIDIS 3519; conditions: S. epidermidis 3519; BHI agar; unit assumed
# [21] = system: STAPHYLOCOCCUS AUREUS CMX 553; experiment: In vitro antibacterial activity, MIC, BHI agar dilution; conditions: S. aureus CMX 553, unit assumed
# [22] = system: PSEUDOMONAS AERUGINOSA K799/61; experiment: as above; conditions: P. aeruginosa K799/61, unit assumed
compound,measurement,setting,value
CC[C@H]1OC(=O)[C@H](C)C(=O)[C@H](C)[C@@H](O[C@@H]2O[C@H](C)C[C@H](N(C)C)[C@H]2O)[C@](C)(OC)C[C@@H](C)C2=NC[C@H](C)N3C(=O)O[C@@]1(C)[C@H]3[C@H]2C [Example 8],MIC,[1],0.78 µg/mL
same,MIC,[2],100 µg/mL
same,MIC,[3],> 100 µg/mL
same,MIC,[4],0.1 µg/mL
same,MIC,M[…] ATCC 4698,1.56 µg/mL
same,MIC,M[…] ATCC 9341,1.56 µg/mL
same,MIC,STR[…] 508,0.1 µg/mL
same,MIC,EN[…] ATCC 8043,0.78 µg/mL
same,MIC,[5],0.78 µg/mL
same,MIC,[6],0.1 µg/mL
same,MIC,[7],> 100 µg/mL
same,MIC,ESCHERICHIA COLI DC-2,50 µg/mL
same,MIC,[8],100 µg/mL
same,MIC,[9],> 100 µg/mL
same,MIC,ESCHERICHIA COLI H560,25 µg/mL
same,MIC,ESCHERICHIA COLI KNK 437,100 µg/mL
same,MIC,ESCHERICHIA COLI JUHL,100 µg/mL
same,MIC,[10],0.78 µg/mL
same,MIC,[11],> 100 µg/mL
same,MIC,[12],> 100 µg/mL
same,MIC,[13],100 µg/mL
same,MIC,[14],0.78 µg/mL
same,MIC,CANDIDA ALBICANS CCH 442,> 100 µg/mL
same,MIC,[15],6.2 µg/mL
same,MIC,[16],0.78 µg/mL
same,MIC,ESCHERICHIA COLI SS,0.78 µg/mL
same,MIC,[17],100 µg/mL
same,MIC,PSEUDOMONAS CEPACIA 296I,> 100 µg/mL
same,MIC,[18],> 100 µg/mL
same,MIC,[19],> 100 µg/mL
same,MIC,[20],0.78 µg/mL
same,MIC,[21],0.78 µg/mL
CC[C@H]1OC(=O)[C@H](C)C(=O)[C@H](C)[C@@H](O[C@@H]2O[C@H](C)C[C@H](N(C)C)[C@H]2O)[C@](C)(OC)C[C@@H](C)C2=N[C@@H](C)[C@H](C)N3C(=O)O[C@@]1(C)[C@H]3[C@H]2C [Example 11],MIC,[1],0.39 µg/mL
same,MIC,[2],> 100 µg/mL
same,MIC,[3],> 100 µg/mL
same,MIC,[4],0.01 µg/mL
same,MIC,M[…] ATCC 4698,0.39 µg/mL
same,MIC,M[…] ATCC 9341,0.2 µg/mL
same,MIC,STR[…] 508,0.05 µg/mL
same,MIC,EN[…] ATCC 8043,0.1 µg/mL
same,MIC,[5],0.39 µg/mL
same,MIC,[6],0.005 µg/mL
same,MIC,[7],> 100 µg/mL
same,MIC,ESCHERICHIA COLI DC-2,25 µg/mL
same,MIC,[8],12.5 µg/mL
same,MIC,[9],> 100 µg/mL
same,MIC,ESCHERICHIA COLI H560,6.2 µg/mL
same,MIC,ESCHERICHIA COLI KNK 437,25 µg/mL
same,MIC,ESCHERICHIA COLI JUHL,25 µg/mL
same,MIC,[10],0.39 µg/mL
same,MIC,[11],> 100 µg/mL
same,MIC,[12],> 100 µg/mL
same,MIC,[13],> 100 µg/mL
same,MIC,[14],0.39 µg/mL
same,MIC,CANDIDA ALBICANS CCH 442,> 100 µg/mL
same,MIC,[15],6.2 µg/mL
same,MIC,[16],0.39 µg/mL
same,MIC,ESCHERICHIA COLI SS,0.39 µg/mL
same,MIC,[17],25 µg/mL
same,MIC,PSEUDOMONAS CEPACIA 296I,> 100 µg/mL
same,MIC,[18],> 100 µg/mL
same,MIC,[19],> 100 µg/mL
same,MIC,[20],0.39 µg/mL
same,MIC,[21],0.39 µg/mL
C=CCN1CC2N=C3[C@H](C)C[C@@](C)(OC)[C@H](O[C@@H]4O[C@H](C)C[C@H](N(C)C)[C@H]4O)[C@@H](C)C(=O)[C@@H](C)C(=O)O[C@H](CC)[C@@]4(C)OC(=O)N(C2C1)[C@@H]4[C@H]3C (stereo partly shown) [Example 116],MIC,[1],0.78 µg/mL
same,MIC,[2],> 100 µg/mL
same,MIC,[3],> 100 µg/mL
same,MIC,[4],≤ 0.005 µg/mL
same,MIC,M[…] ATCC 4698,0.39 µg/mL
same,MIC,M[…] ATCC 9341,0.2 µg/mL
same,MIC,STR[…] 508,0.05 µg/mL
same,MIC,EN[…] ATCC 8043,0.2 µg/mL
same,MIC,[5],0.78 µg/mL
same,MIC,[7],> 100 µg/mL
same,MIC,ESCHERICHIA COLI DC-2,100 µg/mL
same,MIC,[8],> 100 µg/mL
same,MIC,[9],> 100 µg/mL
same,MIC,ESCHERICHIA COLI H560,50 µg/mL
same,MIC,ESCHERICHIA COLI KNK 437,> 100 µg/mL
same,MIC,ESCHERICHIA COLI JUHL,50 µg/mL
same,MIC,[10],0.78 µg/mL
same,MIC,[11],> 100 µg/mL
same,MIC,[12],> 100 µg/mL
same,MIC,[22],3.1 µg/mL
same,MIC,[13],100 µg/mL
same,MIC,[14],0.78 µg/mL
same,MIC,CANDIDA ALBICANS CCH 442,> 100 µg/mL
same,MIC,[15],1.56 µg/mL
same,MIC,[16],0.39 µg/mL
same,MIC,ESCHERICHIA COLI SS,0.39 µg/mL
same,MIC,[17],> 100 µg/mL
same,MIC,PSEUDOMONAS CEPACIA 296I,> 100 µg/mL
same,MIC,[18],> 100 µg/mL
same,MIC,[19],> 100 µg/mL
same,MIC,[20],0.78 µg/mL
same,MIC,[21],0.78 µg/mL
CCOC(=O)CCN1CC2N=C3C(C)CC(C)(OC)C(OC4OC(C)CC(N(C)C)C4O)C(C)C(=O)C(C)C(=O)OC(CC)C4(C)OC(=O)N(C2C1)C4C3C (stereo not shown) [Example 130],MIC,[1],1.56 µg/mL
same,MIC,[2],> 100 µg/mL
same,MIC,[3],> 100 µg/mL
same,MIC,[4],0.1 µg/mL
same,MIC,M[…] ATCC 4698,0.78 µg/mL
same,MIC,M[…] ATCC 9341,0.2 µg/mL
same,MIC,STR[…] 508,0.1 µg/mL
same,MIC,EN[…] ATCC 8043,0.2 µg/mL
same,MIC,[5],0.78 µg/mL
same,MIC,[6],0.1 µg/mL
same,MIC,[7],> 100 µg/mL
same,MIC,ESCHERICHIA COLI DC-2,> 100 µg/mL
same,MIC,[8],> 100 µg/mL
same,MIC,[9],> 100 µg/mL
same,MIC,ESCHERICHIA COLI H560,> 100 µg/mL
same,MIC,ESCHERICHIA COLI KNK 437,> 100 µg/mL
same,MIC,ESCHERICHIA COLI JUHL,> 100 µg/mL
same,MIC,[11],> 100 µg/mL
same,MIC,[12],> 100 µg/mL
same,MIC,[22],3.1 µg/mL
same,MIC,[13],> 100 µg/mL
same,MIC,[14],6.2 µg/mL
same,MIC,CANDIDA ALBICANS CCH 442,> 100 µg/mL
same,MIC,[15],25 µg/mL
same,MIC,ESCHERICHIA COLI SS,0.78 µg/mL
same,MIC,[17],> 100 µg/mL
same,MIC,PSEUDOMONAS CEPACIA 296I,> 100 µg/mL
same,MIC,[18],> 100 µg/mL
same,MIC,[19],> 100 µg/mL
same,MIC,[20],3.1 µg/mL
same,MIC,[21],1.56 µg/mL
